Assay results as given in patent US10392347B2, “2,4-dihydroxy-nicotinamides as APJ agonists” (BRISTOL-MYERS SQUIBB COMPANY, priority 2015, dated 2019).
Read-outs that look alike come from different tables or passages of the source. Each block holds one molecule with its values, some of them ahead of it.

Biological target: T1, human APJ receptor (Homo sapiens, UniProt P35414)
T1 construct: expressed in transfected cells
T1 sequence (P35414 1-380): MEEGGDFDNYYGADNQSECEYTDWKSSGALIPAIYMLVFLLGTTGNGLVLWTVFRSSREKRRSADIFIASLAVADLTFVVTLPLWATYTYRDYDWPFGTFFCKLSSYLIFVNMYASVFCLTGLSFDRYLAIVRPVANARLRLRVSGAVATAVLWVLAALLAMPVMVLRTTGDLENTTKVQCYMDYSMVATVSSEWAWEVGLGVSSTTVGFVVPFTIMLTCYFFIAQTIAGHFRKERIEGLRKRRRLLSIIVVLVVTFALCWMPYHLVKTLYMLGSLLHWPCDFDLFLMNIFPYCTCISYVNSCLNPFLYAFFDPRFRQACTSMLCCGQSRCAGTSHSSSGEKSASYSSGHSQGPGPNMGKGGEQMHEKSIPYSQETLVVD
Assay: Intracellular cAMP accumulation assay (APJ hcAMP, HTRF)
Format: cell-based
Conditions: HEK293 cells stably expressing human APJ, forskolin-stimulated cAMP, read-out: Human cAMP EC50
In short: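 Inhibition of forskolin (2 μM)-stimulated cAMP, with […], was measured after 30 min compound exposure at room temperature in stably transfected HEK293 cells. HTRF ratios were converted to cAMP via standard curve, and EC50 values came from variable-slope sigmoidal concentration-response fitting.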

EC50 (Table 4): 0.01 to 10 nM
Compound: CCCCc1nc(O)c(C(=O)N2CCN(Cc3cc(F)ccc3F)CC2)c(O)c1-c1c(OC)cccc1OC [Example 122, 6-butyl-3-{4-[(2,5-difluorophenyl)methyl]piperazine-1-carbonyl}-5-(2,6-dimethoxyphenyl)pyridine-2,4-diol]

EC50 (Table 4): 0.01 to 10 nM
Compound: CCCCc1nc(O)c(C(=O)N2CCN(Cc3cccc(Cl)n3)CC2)c(O)c1-c1c(OC)cccc1OC [Example 123, 6-butyl-3-{4-[(6-chloropyridin-2-yl)methyl]piperazine-1-carbonyl}-5-(2,6-dimethoxyphenyl)pyridine-2,4-diol]

EC50 (Table 5): 0.01 to 10 nM
Compound: CCOCc1nc(O)c(C(=O)N2CCC(c3cccc(F)c3)C2)c(O)c1-c1c(OC)cccc1OC (stereo not drawn) [Example 124, 5-(2,6-dimethoxyphenyl)-6-(ethoxymethyl)-3-[3-(3-fluorophenyl)pyrrolidine-1-carbonyl]pyridine-2,4-diol]

EC50 (Table 5): 10 to 100 nM
Compound: COc1cccc(OC)c1-c1c(C2CCCC2)nc(O)c(C(=O)N2CCC(c3cccc(F)c3)C2)c1O (stereo not drawn) [Example 125, 6-cyclopentyl-5-(2,6-dimethoxyphenyl)-3-[3-(3-fluorophenyl)pyrrolidine-1-carbonyl]pyridine-2,4-diol]

EC50 (Table 5): 0.01 to 10 nM
Compound: CCOCc1nc(O)c(C(=O)N2CCC(c3ccccc3F)C2)c(O)c1-c1c(OC)cccc1OC (stereo not drawn) [Example 126, 5-(2,6-dimethoxyphenyl)-6-(ethoxymethyl)-3-[3-(2-fluorophenyl)pyrrolidine-1-carbonyl]pyridine-2,4-diol]

EC50 (Table 5): 0.01 to 10 nM
Compound: CCOCc1nc(O)c(C(=O)N2CCC(c3ccccc3F)C2)c(O)c1-c1c(OC)cccc1OC (stereo not drawn) [Example 127, 5-(2,6-dimethoxyphenyl)-6-(ethoxymethyl)-3-[3-(2-fluorophenyl)pyrrolidine-1-carbonyl]pyridine-2,4-diol]

EC50 (Table 5): 10 to 100 nM
Compound: COc1cccc(-c2c(-c3csc(C)n3)nc(O)c(C(=O)N3CCC(c4ncc(F)cc4F)C3)c2O)c1 (stereo not drawn) [Example 128, 3-[3-(3,5-difluoropyridin-2-yl)pyrrolidine-1-carbonyl]-5-(3-methoxyphenyl)-6-(2-methyl-1,3-thiazol-4-yl)pyridine-2,4-diol]

EC50 (Table 5): 0.01 to 10 nM
Compound: COc1cccc(-c2c(-c3csc(C)n3)nc(O)c(C(=O)N3CCC(c4ncc(F)cc4F)C3)c2O)c1 (stereo not drawn) [Example 129, 3-[3-(3,5-difluoropyridin-2-yl)pyrrolidine-1-carbonyl]-5-(3-methoxyphenyl)-6-(2-methyl-1,3-thiazol-4-yl)pyridine-2,4-diol]

EC50 (Table 6): 0.01 to 10 nM
Compound: CCOCc1nc(O)c(C(=O)N2CCC(c3ccc(F)cc3F)C2)c(O)c1-c1c(OC)cccc1OC (stereo not drawn) [Example 131]

EC50 (Table 6): 0.01 to 10 nM
Compound: CCOCc1nc(O)c(C(=O)N2CCC(c3ccc(F)cc3F)C2)c(O)c1-c1c(OC)cccc1OC (stereo not drawn) [Example 132, 3-[3-(2,4-difluorophenyl)pyrrolidine-1-carbonyl]-5-(2,6-dimethoxyphenyl)-6-(ethoxymethyl)-4-hydroxy-1,2-dihydropyridin-2-one]

EC50 (Table 6): 0.01 to 10 nM
Compound: CCOCc1nc(O)c(C(=O)N2CCC(c3c(F)cccc3F)C2)c(O)c1-c1c(OC)cccc1OC (stereo not drawn) [Example 133, 3-[3-(2,6-difluorophenyl)pyrrolidine-1-carbonyl]-5-(2,6-dimethoxyphenyl)-6-(ethoxymethyl)-4-hydroxy-1,2-dihydropyridin-2-one]

EC50 (Table 6): 0.01 to 10 nM
Compound: CCOCc1nc(O)c(C(=O)N2CCC(c3c(F)cccc3F)C2)c(O)c1-c1c(OC)cccc1OC (stereo not drawn) [Example 134, 3-[3-(2,6-difluorophenyl)pyrrolidine-1-carbonyl]-5-(2,6-dimethoxyphenyl)-6-(ethoxymethyl)-4-hydroxy-1,2-dihydropyridin-2-one]

EC50 (Table 6): 0.01 to 10 nM
Compound: CCCCc1nc(O)c(C(=O)N2CC[C@H](OCc3ccccc3)C2)c(O)c1-c1c(OC)cccc1OC [Example 136, 3-[(3S)-3-(benzyloxy)pyrrolidine-1-carbonyl]-6-butyl-5-(2,6-dimethoxyphenyl)pyridine-2,4-diol]

EC50 (Table 6): 10 to 100 nM
Compound: CCOCc1nc(O)c(C(=O)N2CC[C@H](OCc3ccccc3)C2)c(O)c1-c1c(OC)cccc1OC [Example 137, 3-[(3S)-3-(benzyloxy)pyrrolidine-1-carbonyl]-5-(2,6-dimethoxyphenyl)-6-(ethoxymethyl)pyridine-2,4-diol]

EC50 (Table 7): 0.01 to 10 nM
Compound: CCCCc1nc(O)c(C(=O)N2CCN(Cc3cccc(F)c3F)CC2)c(O)c1-c1cccc(CC#N)c1 [Example 139, 2-[3-(2-butyl-5-{4-[(2,3-difluorophenyl)methyl]piperazine-1-carbonyl}-4,6-dihydroxypyridin-3-yl)phenyl]acetonitrile]

EC50 (Table 7): 0.01 to 10 nM
Compound: CCCCc1nc(O)c(C(=O)N2CCC(c3ncc(F)cc3F)C2)c(O)c1-c1cccc(C(C)C)c1 (stereo not drawn) [Example 140, 6-butyl-3-[3-(3,5-difluoropyridin-2-yl)pyrrolidine-1-carbonyl]-5-[3-(propan-2-yl)phenyl]pyridine-2,4-diol]

EC50 (Table 7): 0.01 to 10 nM
Compound: CCCCc1nc(O)c(C(=O)N2CCC(c3ncc(F)cc3F)C2)c(O)c1-c1cccc(C(C)C)c1 (stereo not drawn) [Example 141, 6-butyl-3-[3-(3,5-difluoropyridin-2-yl)pyrrolidine-1-carbonyl]-5-[3-(propan-2-yl)phenyl]pyridine-2,4-diol]

EC50 (Table 7): 0.01 to 10 nM
Compound: CCCCc1nc(O)c(C(=O)N2CCC(c3ncc(F)cc3F)C2)c(O)c1-c1cccc(OC)c1 (stereo not drawn) [Example 142, 6-butyl-3-[3-(3,5-difluoropyridin-2-yl)pyrrolidine-1-carbonyl]-5-(3-methoxyphenyl)pyridine-2,4-diol]

EC50 (Table 7): 0.01 to 10 nM
Compound: CCCCc1nc(O)c(C(=O)N2CCC(c3ncc(F)cc3F)C2)c(O)c1-c1cccc(OC)c1 (stereo not drawn) [Example 143, 6-butyl-3-[3-(3,5-difluoropyridin-2-yl)pyrrolidine-1-carbonyl]-5-(3-methoxyphenyl)pyridine-2,4-diol]

EC50 (Table 7): 0.01 to 10 nM
Compound: CCCCc1nc(O)c(C(=O)N2CCC(c3ncc(F)cc3F)C2)c(O)c1-c1cccc(CO)c1 (stereo not drawn) [Example 144, 6-butyl-3-[3-(3,5-difluoropyridin-2-yl)pyrrolidine-1-carbonyl]-5-[3-(hydroxymethyl)phenyl]pyridine-2,4-diol]

EC50 (Table 7): 0.01 to 10 nM
Compound: CCCCc1nc(O)c(C(=O)N2CCC(c3ncc(F)cc3F)C2)c(O)c1-c1cccc(C(=O)NC(C)C)c1 (stereo not drawn) [Example 145, 3-{2-butyl-5-[3-(3,5-difluoropyridin-2-yl)pyrrolidine-1-carbonyl]-4,6-dihydroxypyridin-3-yl}-N-(propan-2-yl)benzamide]

EC50 (Table 7): 0.01 to 10 nM
Compound: CCCCc1nc(O)c(C(=O)N2CCC(c3ncc(F)cc3F)C2)c(O)c1-c1cccc(C(=O)NC(C)C)c1 (stereo not drawn) [Example 146, 3-{2-butyl-5-[3-(3,5-difluoropyridin-2-yl)pyrrolidine-1-carbonyl]-4,6-dihydroxypyridin-3-yl}-N-(propan-2-yl)benzamide]

EC50 (Table 7): 0.01 to 10 nM
Compound: CCCCc1nc(O)c(C(=O)N2CCC(c3ncc(F)cc3F)C2)c(O)c1-c1cccc(CO)c1 (stereo not drawn) [Example 147, 6-butyl-3-[3-(3,5-difluoropyridin-2-yl)pyrrolidine-1-carbonyl]-5-[3-(hydroxymethyl)phenyl]pyridine-2,4-diol]

EC50 (Table 8): 10 to 100 nM
Compound: CCNCc1nc(O)c(C(=O)N2CCC(c3ccccc3F)C2)c(O)c1-c1c(OC)cccc1OC (stereo not drawn) [Example 150, 5-(2,6-dimethoxyphenyl)-6-[(ethylamino)methyl]-3-[3-(2-fluorophenyl)pyrrolidine-1-carbonyl]pyridine-2,4-diol]
